Article PMC4864567, “Characterization of the ATP-Dependent Lon-Like Protease in Methanobrevibacter smithii” (Archaea, 2016)

What was measured:
[1] = biological target: T1, Lon-like-Ms (Methanobrevibacter smithii, UniProt A5UP31); assay: fluorogenic peptide cleavage (MNA release); assay type: biochemical; conditions: 0.3 mM Glt-AAF-MNA, 10 mM MgCl2, pH 8.0, 37 °C; nucleotide required for activity, inhibitory at rising concentration; not a fitted IC50
T1 construct: gene Msm_1754
T1 sequence (A5UP31 1-682): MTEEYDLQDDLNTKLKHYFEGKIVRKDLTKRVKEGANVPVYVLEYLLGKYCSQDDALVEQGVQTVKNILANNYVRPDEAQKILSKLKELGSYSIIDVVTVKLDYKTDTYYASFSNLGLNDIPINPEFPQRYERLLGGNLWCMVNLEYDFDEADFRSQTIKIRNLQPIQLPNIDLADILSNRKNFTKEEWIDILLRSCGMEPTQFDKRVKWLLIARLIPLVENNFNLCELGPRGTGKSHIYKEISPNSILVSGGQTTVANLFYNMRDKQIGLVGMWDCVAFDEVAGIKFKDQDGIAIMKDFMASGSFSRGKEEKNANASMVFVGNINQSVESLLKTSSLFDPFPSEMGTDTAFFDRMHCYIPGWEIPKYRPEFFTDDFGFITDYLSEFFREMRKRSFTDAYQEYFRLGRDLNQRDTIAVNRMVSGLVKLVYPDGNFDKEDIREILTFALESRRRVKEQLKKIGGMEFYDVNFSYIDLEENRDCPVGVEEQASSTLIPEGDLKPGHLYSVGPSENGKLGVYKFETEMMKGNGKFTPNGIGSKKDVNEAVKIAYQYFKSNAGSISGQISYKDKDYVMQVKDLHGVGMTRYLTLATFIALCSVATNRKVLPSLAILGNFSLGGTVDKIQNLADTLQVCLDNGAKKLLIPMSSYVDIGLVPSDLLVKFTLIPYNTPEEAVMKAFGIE
Excerpt: fluorogenic peptide cleavage (MNA release) on Lon-like-Ms | reaching a decrease by half at 1-mM ATP or AMP-PNP

[2] = biological target: T1, Lon-like-Ms; assay: fluorogenic peptide cleavage (MNA release); assay type: biochemical; conditions: ADP in place of ATP, with Mg2+; Glt-AAF-MNA, pH 8.0, 37 °C; called inhibitory, partial activity retained

Structure (SMILES)	concentration giving decrease by half [1]	fluorogenic peptide cleavage (MNA release) [2]
Nc1ncnc2c1ncn2[C@@H]1O[C@H](COP(=O)(O)OP(=O)(O)NP(=O)(O)O)[C@@H](O)[C@H]1O [5′-adenylyl imidodiphosphate]	~ 1 mM	
Nc1ncnc2c1ncn2[C@@H]1O[C@H](COP(=O)(O)OP(=O)(O)O)[C@@H](O)[C@H]1O [ADP]		ADP, a potent inhibitor of Lon from E. coli, also inhibited the activity of Lon-like-Ms
Nc1ncnc2c1ncn2[C@@H]1O[C@H](COP(=O)(O)OP(=O)(O)OP(=O)(O)O)[C@@H](O)[C@H]1O [ATP]	~ 1 mM	
